According to patent publication US10391095B2, “DNA-PK inhibitors” (Vertex Pharmaceuticals Incorporated, priority 2012, dated 2019):

target: DNA-PK (Homo sapiens, UniProt P78527); experiment: DNA-PK inhibition assay (radiometric, 33P-ATP); assay type: biochemical; conditions: 100 μM ATP, competitive tight-binding fit
Summary of the method: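 33P transfer from 100 µM ATP to a DNA-PK peptide (0.8 mg/mL) is measured after 45 min, using about 6 nM enzyme activated by 10 µg/mL sheared dsDNA (HEPES pH 7.5, MgCl2, DTT). Filter-bound counts fitted to a competitive tight-binding inhibition model give Ki.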

Ki, < 30 nM:
CCOc1ncc(-c2cc(NC[C@@H](C)c3cccc4c(C(=O)NC)ccnc34)ncn2)cn1 [Compound 607]
CNC(=O)c1ccnc2c([C@H](C)CNc3cc(-c4ccc(NC5CCN(C)CC5)nc4)ncn3)cccc12 [Compound 635]
CNC(=O)c1ccnc2c([C@H](C)CNc3cc(-c4ccc(OC(C)C)nc4)ncn3)cccc12 [Compound 959]
CNC(=O)c1ccc(C(C)CNc2cc(-c3cnc4c(cnn4CC(C)(C)O)c3)ncn2)c(OC)c1 (stereo not shown) [Compound 274]
CNC(=O)c1ccnc2c([C@H](C)CNc3cc(-c4cnc(C(F)(F)F)nc4)ncn3)cccc12 [Compound 957]
CNC(=O)c1c(F)cnc2c([C@H](C)CNc3cc(-c4cnc(OC(C)C)nc4)ncn3)cccc12 [Compound 938]
COc1cnc(N)cc1[C@H](C)CNc1cc(-c2ccc(C)nc2)ncn1 [Compound 630]
CNC(=O)c1ccnc2c([C@H](C)CNc3cc(-c4ccc(N5CCOCC5)nc4)ncn3)cccc12 [Compound 641]
CNc1ncc(-c2cc(NC[C@@H](C)c3ccnc4cccnc34)ncn2)cn1 [Compound 497]
CNC(=O)c1ccnc2c([C@H](C)CNc3cc(-c4cccnc4)ncn3)cccc12 [Compound 612]
CNC(=O)c1ccnc2c([C@H](C)CNc3cc(-c4cnc(CN(C)C)nc4)ncn3)cccc12 [Compound 885]
CNC(=O)c1ccnc2c([C@H](C)CNc3cc(-c4cnc5c(c4)OCCN5)ncn3)cccc12 [Compound 817]
CNC(=O)c1ccc(C(C)CNc2cc(-c3cnc4c(cnn4CCC#N)c3)ncn2)c(OC)c1 (stereo not shown) [Compound 442]
CC(CNc1cc(-c2cnc3c(cnn3CCO)c2)ncn1)c1cc(F)c(F)cc1OC1CCC1 (stereo not shown) [Compound 382]
Cc1ncc(-c2cc(NC[C@@H](C)c3cccc4c(C(F)F)c(F)cnc34)ncn2)cn1 [Compound 813]
CNC(=O)c1ccnc2c([C@H](C)CNc3cc(-c4ccc(C(=O)O)s4)ncn3)cccc12 [Compound 775]
CNC(=O)c1ccnc2c([C@H](C)CNc3cc(-c4ccc(CO)s4)ncn3)cccc12 [Compound 860]
CNC(=O)c1ccc([C@H](C)CNc2cc(-c3ccc(CN)cc3)ncn2)c(OC)c1 [Compound 351]
CNC(=O)c1ccnc2c([C@H](C)CNc3cc(-n4ccnc4)ncn3)cccc12 [Compound 743]
CNC(=O)c1ccnc2c([C@H](C)CNc3cc(-c4ccc(C5CC5)nc4)ncn3)cccc12 [Compound 847]
CC(CNc1cc(-c2ccc(N3CCN(C)CC3)nc2)ncn1)c1ccccc1OC1COC1 (stereo not shown) [Compound 102]
CNC(=O)c1ccc(C(C)CNc2cc(-c3ccc(OCCSC)nc3)ncn2)c(OC)c1 (stereo not shown) [Compound 323]
CNC(=O)c1ccnc2c([C@H](C)CNc3cc(-c4ccc(N5CCC6(COC6)C5)nc4)ncn3)cccc12 [Compound 735]
CCOC(=O)c1ccc(-c2cc(NC[C@@H](C)c3cccc4c(C(=O)NC)ccnc34)ncn2)o1 [Compound 795]
CCNc1ncc(-c2cc(NC[C@@H](C)c3cccc4c(C(=O)NC)ccnc34)ncn2)cn1 [Compound 942]
CNC(=O)c1ccc([C@H](C)CNc2cc(-c3ccc(NC(C)=O)cc3)ncn2)c(OC)c1 [Compound 317]
C[C@H](CNc1cc(-c2ccc(N3CCN(C)CC3)nc2)ncn1)c1ccccc1OC1CC1 [Compound 114]
CCOc1ccccc1CCNc1cc(-c2ccc(N3CC[C@@H](O)C3)nc2)ncn1 [Compound 99]
CNC(=O)c1ccnc2c([C@H](C)CNc3cc(-c4ccc(C(O)C(C)C)nc4)ncn3)cccc12 (stereo partly shown) [Compound 925]
Cc1ccc(-c2cc(NCC(C)c3ccccc3OC3CCCC3)ncn2)cn1 (stereo not shown) [Compound 241]
CNC(=O)c1ccc([C@H](C)CNc2cc(-c3ccc4c(c3)OCC(=O)N4)ncn2)c(OC)c1 [Compound 314]
Cc1ncc(-c2cc(NC[C@@H](C)c3cccc4nccnc34)ncn2)cn1 [Compound 662]
CNC(=O)CNc1ccc(-c2cc(NC[C@@H](C)c3cccc4c(C(=O)NC)ccnc34)ncn2)cn1 [Compound 632]
COCCn1ncc2cc(-c3cc(NCC(C)c4cscc4OC)ncn3)cnc21 (stereo not shown) [Compound 227]
CNC(=O)c1ccc([C@H](C)CNc2cc(-c3ccc(NC)nc3)ncn2)c(OC)c1 [Compound 358]
Cc1ccc(-c2cc(NC[C@@H](C)c3cccc4c(C(=O)NCC(F)F)ccnc34)ncn2)cn1 [Compound 569]
CCOc1ccccc1CCNc1cc(-c2ccc(N3CC[C@H](O)C3)nc2)ncn1 [Compound 98]
CNC(=O)c1ccnc2c([C@H](C)CNc3cc(-c4ccc(C(C)=O)cc4)ncn3)cccc12 [Compound 590]
COc1ccccc1[C@H](C)CNc1cc(-c2ccc(NCC#N)nc2)ncn1 [Compound 202]
C[C@H](CNc1cc(-c2cc(C(F)(F)F)c3ncccc3c2)ncn1)c1ccnc2c1OCC2 [Compound 591]
COc1ccccc1[C@H](C)CNc1cc(-c2ccnc(NCC(O)CO)c2)ncn1 (single isomer, unassigned) [Compound 208]
CCOc1ccccc1C(C)CNc1cc(-c2ccc(N3CCN(C)CC3)nc2)ncn1 (stereo not shown) [Compound 92]
CNC(=O)c1ccnc2c([C@H](C)CNc3cc(-c4ccc(N5Cc6ccncc6C5)nc4)ncn3)cccc12 [Compound 718]
Cc1ccc(-c2cc(NC[C@@H](C)c3ccnc4c3OCC4C)ncn2)cn1 (single isomer, unassigned) [Compound 576]
CNC(=O)c1c(F)cnc2c([C@H](C)CNc3cc(-c4cccs4)ncn3)cccc12 [Compound 689]
CCc1cc(-c2cc(NC[C@@H](C)c3cccc4c(C(=O)NC)ccnc34)ncn2)cc(CC)n1 [Compound 953]
CNC(=O)c1ccc([C@H](C)CNc2cc(-c3ccc(C)nc3)ncn2)c2ncccc12 [Compound 485]
CNC(=O)c1ccnc2c([C@H](C)CNc3cc(-c4cnc(OC)nc4)ncn3)cccc12 [Compound 606]
COc1cc(Br)ccc1C(C)CNc1cc(-c2ccc(C)nc2)ncn1 (stereo not shown) [Compound 423]
[2H]C([2H])([2H])NC(=O)c1ccnc2c([C@H](C)CNc3cc(-c4ccc(C)nc4)ncn3)cccc12 [Compound 549]
COc1cc(C(=O)NO)ccc1C(C)CNc1cc(-c2ccc(C)nc2)ncn1 (stereo not shown) [Compound 156]
CNC(=O)c1ccnc2c([C@H](C)CNc3cc(-c4ccc(OCCN5CCCC5)cc4)ncn3)cccc12 [Compound 727]
CNC(=O)c1c(F)cnc2c([C@H](C)CNc3cc(-c4cnc(C5CCOCC5)nc4)ncn3)cccc12 [Compound 833]
COc1cc(C(=O)NC2CCCC2)ccc1C(C)CNc1cc(-c2ccc(C)nc2)ncn1 (stereo not shown) [Compound 159]
CNC(=O)c1ccnc2c([C@H](C)CNc3cc(-c4ccc5c(c4)CN(C(=O)COC)CC5)ncn3)cccc12 [Compound 834]
